Data reported in patent publication US20080038228A1, “Method” (Danisco A/S, priority 2003, published 2008).
Entries after “also recorded” stand apart in the source; their conditions may differ.

What was measured:
[1] = test system: cyclooxygenase 1 gene expression in Caco2 cells; assay: Caco-2 cell-based exposure test, Cox-1 gene expression (Experiment 1: selected metabolites and co-cultured bacterium); parameters: species or system human; details: 24 hour treatment, metabolites 5 mM, bacterium co-cultured in membrane insert
Method: The human colorectal carcinoma cell line Caco-2 was grown at 37° C. and 5% CO2 in serum-free Dulbeccos' MEM (Gibco) supplemented with 1 mM sodium pyruvate (Gibco) and 1× non-essential amino acids (Gibco) (DMEM). When grown without added bacteria, 20 Uml^−1 penicillin (Gibco), 20 μgml^−1 streptomycin (Gibco) and 0.5 μgml^−1 amphotericin (Gibco) were added to the medium. Bifidobacterium sp. 420 was grown anaerobically for 48 hours at 37° C. in a BIF medium consisting of 10 gl^−1 tryptic digest of casein peptone; 5 gl^−1 meat extract; 5 gl^−1 yeast extract; 10 gl^−1 glucose; 3 gl^−1 K2HPO4; 0.1% (volume/volume) Tween 80; 1% ascorbic acid and 0.05% cysteine-HCl; pH 6.8. 2 ml of logarithmic phase culture was centrifuged at 4000 rpm for 3 minutes. The cell pellet was suspended in 1.6 ml DMEM. […]
(§1) After 24 hour exposure, media and culture inserts were discarded, cells were lysed and RNA was extracted using Qiagen's (Germany) RNEasy Mini Kit DNA was digested using the same manufacturer's RNase free DNase. […] Cox-1/Cox-2 expression patterns were determined by real-time quantitative TaqMan PCR (Holland et al., 1991 Proc. Natl. Acad. Sci. USA August 15; 88(16): 7276-80; and Livak and Scmittgen, 2001 Methods December; 25(4):402-8) using the default settings of an ABIPrism 7000 Sequence Detection instrument (Applied Biosystems).

[2] = test system: cyclooxygenase 2 gene expression in Caco2 cells; assay: Caco-2 cell-based exposure test, Cox-2 gene expression (Experiment 1: selected metabolites and co-cultured bacterium); parameters: species or system human; details: 24 hour treatment, metabolites 5 mM, bacterium co-cultured in membrane insert
Method: The human colorectal carcinoma cell line Caco-2 was grown at 37° C. and 5% CO2 in serum-free Dulbeccos' MEM (Gibco) supplemented with 1 mM sodium pyruvate (Gibco) and 1× non-essential amino acids (Gibco) (DMEM). When grown without added bacteria, 20 Uml^−1 penicillin (Gibco), 20 μgml^−1 streptomycin (Gibco) and 0.5 μgml^−1 amphotericin (Gibco) were added to the medium. Bifidobacterium sp. 420 was grown anaerobically for 48 hours at 37° C. in a BIF medium consisting of 10 gl^−1 tryptic digest of casein peptone; 5 gl^−1 meat extract; 5 gl^−1 yeast extract; 10 gl^−1 glucose; 3 gl^−1 K2HPO4; 0.1% (volume/volume) Tween 80; 1% ascorbic acid and 0.05% cysteine-HCl; pH 6.8. 2 ml of logarithmic phase culture was centrifuged at 4000 rpm for 3 minutes. The cell pellet was suspended in 1.6 ml DMEM. The production of short chain organic acids by the bacterium was tested from fresh and conditioned bifidobacterium medium using gas chromatography.
(§2) To determine the effects of various treatments on the Cox-1/Cox-2 expression pattern, approximately 500 000 Caco-2 cells/well were seeded on 24-well cell culture plates. The cells were allowed to attach for 24 hours, after which the media were replaced by fresh media (total volume 1 ml/well) containing either no other added components than the ones described above (control treatments, with and without antibiotics) or antibiotic supplemented media with 5 mM sodium butyrate; 5 mM sodium propionate; 5 mM sodium acetate or 5 mM sodium lactate. In addition, wells were prepared that contained no antibiotics but a 0.2 μm anopore membrane tissue culture insert (Nunc, Denmark) into which 100 μl of the bacterial suspension described above was added.
After 24 hour exposure, media and culture inserts were discarded, cells were lysed and RNA was extracted using Qiagen's (Germany) RNEasy Mini Kit DNA was digested using the same manufacturer's RNase free DNase. Reverse transcription was performed using the High Capacity cDNA Archive Kit (Applied Biosystems, USA) according to the instructions provided by the manufacturer. Cox-1/Cox-2 expression patterns were determined by real-time quantitative TaqMan PCR (Holland et al., 1991 Proc. Natl. Acad. Sci. USA August 15; 88(16): 7276-80; and Livak and Scmittgen, 2001 Methods December; 25(4):402-8) using the default settings of an ABIPrism 7000 Sequence Detection instrument (Applied Biosystems).

[3] = test system: Cox-1/Cox-2 expression pattern in Caco-2 cells; assay: Cox-1/Cox-2 ratio and expression pattern in Caco-2 cells; type: cell-based, human; details: Experiment 1, Caco-2 cells, 24 hour exposure
Method: as §2, with “In addition, wells were prepared that contained no antibiotics but a 0.2 μm anopore membrane tissue culture insert (Nunc, Denmark) into which 100 μl of the bacterial suspension described above was added.” left out
as §1
Two bifidobacteria (Bifidobacterium sp. 420 and Bifidobacterium longum 913) were cultured as described in Experiment 1. […] Bacterial growth was stopped by chilling confluent cultures on ice, after which cell densities were determined by flow cytometry (FACS Calibur, Becton Dickinson). […]

Cox-2 expression = details: according to prior art; cited from earlier work
[4] = test system: indomethacin-induced gastrointestinal damage; assay: Rat model of indomethacin-induced gastrointestinal damage, damage area (Experiment 3); type: in vivo; details: male Wistar rats
From the text: (§3) A previously described rat model was used to study indomethacin-induced gastrointestinal damage (see Meddings and Gibbons, Gastroenterology 1998; 114:83-92). Briefly, male Wistar rats were used and ten rats were included in each treatment group. Five different treatments were included: control group with no indomethacin treatment, indomethacin control group with no intervention treatment, indomethacin with 10^8 Bifidobacterium per rat, indomethacin with 10^10 Bifidobacterium per rat, and indomethacin with betaine (200 mg/rat). A single dose of indomethacin (10 mg/kg) was given p.o. preceded by a seven-day intervention with or without Bifidobacterium or betaine. In addition, a mixture of sucrose, lactulose, mannitol and sucralose was given p.o to measure gastrointestinal (GI) permeability. Urine samples were obtained at 16 hours after the challenge with indomethacin and prior to sacrificing the animals. Mucosa of the stomach and the intestine were examined by a pathologist and tissue samples of healthy-appearing mucosa for RNA isolation were collected from stomach, proximal and distal small intestine, caecum and proximal and distal colon. RNA was isolated and expression of cyclooxygenase-1 and -2 (COX-1 and COX-2, respectively) were determined by QPCR.

[5] = test system: indomethacin-induced gastrointestinal damage; assay: Combined live Bifidobacterium and betaine in indomethacin-challenged rats, damage area (Experiment 4); type: in vivo, rat; details: Experiment 4, indomethacin-challenged male Wistar rats; Bifidobacterium 10^10 and betaine 200 mg daily per animal; preliminary investigations
Method: Male Wistar rats as described previously in Experiment 3 above are split into the following treatment groups: a control, an indomethacin challenge group as a control, and treatment groups 3-5, which receive intervention treatment by live Bifidobacterium (10^10 daily dose per animal) and betaine (200 mg of daily dose per animal) either separately or in combination. Damage is determined from the sacrificed rats only.

[6] = test system: gastrointestinal (GI) permeability; assay: Gastrointestinal permeability, urine concentrations of marker sugars in indomethacin-challenged rats (Experiment 3); type: in vivo, rat; details: male Wistar rats, single dose 10 mg/kg p.o., urine at 16 hours
From the text: as §3

Row | Structure (SMILES) | Cox-1 gene expression level, fold change in relation to the control [1] | Cox-2 gene expression level, fold change in relation to the control [2] | Cox-1/Cox-2 ratio / expression pattern (FIG. 1) [3] | effect on Cox-2 expression (Cox-2 expression) | further results
1 | CC(=O)[O-].[Na+] [acetate, sodium acetate] | 2.08 fold change | 1.17 fold change | – | – | –
2 | CCC(=O)[O-].[Na+] [propionate, sodium propionate] | – | 0.36 fold change | increase | lowering effect | –
3 | C[N+](C)(C)CC(=O)[O-] [Betaine, trimethylglycine] | – | – | – | – | pathological damage area ([4]; seven-day intervention, then indomethacin 10 mg/kg p.o.): tendency to decrease; also recorded: somewhat reduced; damage area in the gastrointestinal tract [5]: tends to decrease
4 | CCCC(=O)[O-].[Na+] [butyrate, sodium butyrate] | – | 0.15 fold change | increase | lowering effect | –
5 | CC(O)C(=O)[O-].[Na+] (centres unmarked) [lactate, sodium lactate] | 0.91 fold change | 0.74 fold change | – | – | –
6 | COc1ccc2c(c1)c(CC(=O)O)c(C)n2C(=O)c1ccc(Cl)cc1 [Indomethacin, indomethacin] | – | – | – | – | gross pathological changes (ulceration) ([4]; single dose 10 mg/kg p.o.): induced ulceration mainly to fundic stomach, but also to pyloric stomach; urine concentrations of marker sugars after the challenge [6]: significant increase
